We go through 19 compounds from patent publication US10227312B2, “Glucosylceramide synthase inhibitors for the treatment of diseases” (BIOMARIN PHARMACEUTICAL INC., priority 2015, dated 2019).

Experiment [1] addresses glucosylceramide synthase (GCS) (Canis lupus familiaris, UniProt A0A8I3MXG6). Nature of the experiment: GCS Enzymatic Assay (MDCK lysates). Type of experiment: biochemical, canine. Conditions: MDCK cell lysate, C6-NBD-Ceramide, 37° C. for 1 hour, LC/MS; read-out: Assay 1 (Enzyme Assay; MDCK lysates) IC50. The procedure: Madin-Darby canine kidney (MDCK) cell lysate was prepared using M-PER Mammalian Protein Extraction Reagent (Thermal Scientific) in the presence of a protease inhibitor cocktail (Roche). Protein concentration was determined using BCA assay kit (Pierce). […] 0.1% DMSO was used as mock treatment or control. The reaction was terminated by adding 100 μL acetonitrile solution and subjected to LC/MS analysis.
The quantitative analysis of NBD-Ceramide and glucosylceramide was performed on a Shimadzu ultra-fast liquid chromatography (Shimadzu, Japan) coupled with API 4000 triple quadrupole mass spectrometer (Applied Biosystems, Concord, Ontario, Canada). Sample separation was conducted on a Waters Xbridge™ BEH130 C18, 100 mm×4.6 mm i.d, 3.5 μm (Milford, Mass., USA). The mobile phase consisted of water and acetonitrile supplemented with 0.1% formic acid (v/v). The flow rate was 1.0 mL/min. The initial mobile phase was 20% acetonitrile and was ramped in a linear fashion to 50% acetonitrile in 0.4 min. From 0.4 to 1.5 min, the gradient was ramped to 98% acetonitrile, and then was held at […] until 8.0 min. Acetonitrile was reset to 20% in 1.5 min, and maintained until 10.0 min. The total run time was 10.0 min. The MS/MS detection was performed in ESI positive mode. […] The cell lysate was diluted with equal volume of acetonitrile. Aliquots of 50 μL diluted samples were added to 1.5 mL tubes, and 100 μL of acetonitrile containing internal standard (100 ng/mL tolbutamide) were added for protein precipitation. The mixture were vortexed and then centrifuged at 13000 rpm for 10 min. 70 μL of supernatant were mixed with 140 μL of H2O and the final solution were injected for LC/MS/MS analysis and IC50's and/or percent inhibitions calculated.

The test system of a further experiment is K562 cells. The experiment is described as follows: K562 Cell-Based Assay. The following applies: Homo sapiens, NBD-Ceramide, LCMS, read-out: Assay 2 (Cellular Assay; K562 cells) IC50. The procedure:
This assay was modified based on the study by Gupta et al. (J. Lipid Res. 2010, 51, 866). K562 cells were seeded into 12-well plates at 3×10^5 cells/well/mL in RPMI-1640 medium with 5% FBS and incubated at 37° C. for 24 h. One μL of a compound described herein at desired concentration (10 mM, 1 mM, 0.1 mM, 0.01 mM, 0.001 mM and 0.0001 mM in DMSO) or DMSO was added into the corresponding well and mixed. Cells were incubated at 37° C. for 4 h. Then 100 μL of RPMI-1640 medium containing 110 μM of NBD-Ceramide, 11% BSA, 5% FBS, and corresponding concentration of a compound described herein was added into each well and mixed. Cells were incubated for additional 0.5 h at 37° C., followed by washing the cells with ice-cold PBS (pH 7.4) twice with centrifugation and resuspended with 50 μL cold PBS+1% Triton X-100. The cell lysate was sonicated for 15 min before adding equal volume of methanol for LCMS analysis. A small aliquot of cell lysate was used to determine protein concentration by BCA assay kit. The HPLC equipment and methods used in Assay 1 were used in this assay as well and IC50's were calculated.

Each structure is given as a SMILES string. A value given as a limit tells only on which side of the number the result lay.

Chain of glucosylceramide synthase (GCS) (A0A8I3MXG6 1-394): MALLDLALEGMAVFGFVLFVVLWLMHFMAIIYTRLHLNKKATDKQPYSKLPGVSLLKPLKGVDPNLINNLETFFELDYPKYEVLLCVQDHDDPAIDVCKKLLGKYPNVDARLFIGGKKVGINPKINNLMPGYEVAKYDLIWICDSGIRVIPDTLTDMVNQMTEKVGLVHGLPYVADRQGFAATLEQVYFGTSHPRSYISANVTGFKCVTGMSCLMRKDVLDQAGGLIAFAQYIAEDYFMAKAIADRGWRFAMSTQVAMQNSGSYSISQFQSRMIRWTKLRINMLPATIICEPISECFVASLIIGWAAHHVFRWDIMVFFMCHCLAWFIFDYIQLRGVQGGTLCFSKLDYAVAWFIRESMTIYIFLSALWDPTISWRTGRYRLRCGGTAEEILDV

As for `O=C(N[C@H](CN1CCC1)[C@H](O)c1ccc(OC2CC2)cc1)C1=NOCc2cc(-c3ccc(Cl)s3)ccc21` [Example 11, N-((1R,2R)-3-(azetidin-1-yl)-1-(4-cyclopropoxyphenyl)-1-hydroxypropan-2-yl)-7-(5-chlorothiophen-2-yl)-1H-benzo[d][1,2]oxazine-4-carboxamide], the results for the IC50 (in experiment [1]; in the experiment on K562 cells) were 10 to 100 nM and no more than 10 nM, respectively.
As to `O=C(N[C@H](CN1CCCC1)[C@H](O)c1ccc(OC2CC2)c(F)c1)C1=NOCc2c1sc1cc(Cl)ccc21` [Example 12, 7-chloro-N-((1R,2R)-1-(4-cyclopropoxy-3-fluorophenyl)-1-hydroxy-3-(pyrrolidin-1-yl)propan-2-yl)-1H-benzo[4,5]thieno[2,3-d][1,2]oxazine-4-carboxamide], the IC50 (in experiment [1]; in the experiment with K562 cells) was 10 to 100 nM throughout.
As for `O=C(N[C@H](CN1CCCC1)[C@H](O)c1ccc(OC2CC2)cc1)C1=NOCc2cc(-c3ccc(Cl)s3)ccc21` [Example 14, 7-(5-chlorothiophen-2-yl)-N-((1R,2R)-1-(4-cyclopropoxyphenyl)-1-hydroxy-3-(pyrrolidin-1-yl)propan-2-yl)-1H-benzo[d][1,2]oxazine-4-carboxamide], the results for the IC50 (in experiment [1]; in the experiment with K562 cells) were less than 10 nM and no more than 10 nM, respectively.
For `CN(C(=O)C1=NOCc2cc(-c3ccc(F)cc3)ccc21)[C@H](CN1CCCC1)[C@H](O)c1ccc(OC2CC2)c(F)c1` [Example 17, N-((1R,2R)-1-(4-cyclopropoxy-3-fluorophenyl)-1-hydroxy-3-(pyrrolidin-1-yl)propan-2-yl)-7-(4-fluorophenyl)-N-methyl-1H-benzo[d][1,2]oxazine-4-carboxamide], the values for the IC50 (in experiment [1]; in the experiment with K562 cells) were less than 10 nM and no more than 10 nM, respectively.
`CN(C(=O)C1=NOCc2cc(-c3ccc(Cl)s3)ccc21)[C@H](CN1CCCC1)[C@H](O)c1ccc(OC2CC2)c(F)c1` [Example 18, 7-(5-chlorothiophen-2-yl)-N-((1R,2R)-1-(4-cyclopropoxy-3-fluorophenyl)-1-hydroxy-3-(pyrrolidin-1-yl)propan-2-yl)-N-methyl-1H-benzo[d][1,2]oxazine-4-carboxamide]: the values for the IC50 (in experiment [1]; in the experiment on K562 cells) were 10 to 100 nM and no more than 10 nM, respectively.
Turning to `CN(C(=O)C1=NOCc2cc(-c3ccc(F)cc3)ccc21)[C@H](CN1CCCC1)[C@H](O)c1ccc(OC2CC2)c(Cl)c1` [Example 19, N-((1R,2R)-1-(3-chloro-4-cyclopropoxyphenyl)-1-hydroxy-3-(pyrrolidin-1-yl)propan-2-yl)-7-(4-fluorophenyl)-N-methyl-1H-benzo[d][1,2]oxazine-4-carboxamide], the values for the IC50 (in experiment [1]; in the experiment on K562 cells) were 10 to 100 nM and no more than 10 nM, respectively.
On to `O=C(N[C@H](CN1CCCC1)[C@H](O)c1ccc(OC2CC2)c(Cl)c1)C1=NOCc2cc3ccccc3cc21` [Example 20, N-((1R,2R)-1-(3-chloro-4-cyclopropoxyphenyl)-1-hydroxy-3-(pyrrolidin-1-yl)propan-2-yl)-1H-naphtho[2,3-d][1,2]oxazine-4-carboxamide], for which the IC50 in experiment [1] is less than 10 nM; in the experiment on K562 cells, no more than 10 nM.
The matching figures for `CN(C(=O)C1=NOCc2cc(-c3ccc(F)cc3)ccc21)[C@H](CN1CCC1)[C@H](O)c1ccc(OC2CC2)c(Cl)c1` [Example 21, N-((1R,2R)-3-(azetidin-1-yl)-1-(3-chloro-4-cyclopropoxyphenyl)-1-hydroxypropan-2-yl)-7-(4-fluorophenyl)-N-methyl-1H-benzo[d][1,2]oxazine-4-carboxamide]: 10 to 100 nM and no more than 10 nM.
For `O=C(N[C@H](CN1CCCC1)[C@H](O)c1ccc(OC2CC2)c(Cl)c1)C1=NOCc2c1ccc1ccccc21` [Example 22, N-((1R,2R)-1-(3-chloro-4-cyclopropoxyphenyl)-1-hydroxy-3-(pyrrolidin-1-yl)propan-2-yl)-1H-naphtho[2,1-d][1,2]oxazine-4-carboxamide] the same measures were less than 10 nM and no more than 10 nM.
Consider `CC1ON=C(C(=O)N[C@H](CN2CCCC2)[C@H](O)c2ccc(OC3CC3)c(Cl)c2)c2ccc(-c3ccc(F)cc3)cc21` (stereo partly drawn) [Example 24, N-((1R,2R)-1-(3-chloro-4-cyclopropoxyphenyl)-1-hydroxy-3-(pyrrolidin-1-yl)propan-2-yl)-7-(4-fluorophenyl)-1-methyl-1H-benzo[d][1,2]oxazine-4-carboxamide], for which the IC50 (in experiment [1]; in the experiment with K562 cells) was 10 to 100 nM in each case.
Take `O=C(N[C@H](CN1CCCC1)[C@H](O)c1ccc(OC2CC2)cc1)C1=NOCc2c1ccc1ccccc21` [Example 25, N-((1R,2R)-1-(4-cyclopropoxyphenyl)-1-hydroxy-3-(pyrrolidin-1-yl)propan-2-yl)-1H-naphtho[2,1-d][1,2]oxazine-4-carboxamide]: the IC50 in experiment [1] is less than 10 nM; in the experiment with K562 cells, no more than 10 nM.
Regarding `O=C(N[C@H](CN1CCC1)[C@H](O)c1ccc(OC2CC2)c(Cl)c1)C1=NOCc2c1ccc1ccccc21` [Example 26, N-((1R,2R)-3-(azetidin-1-yl)-1-(3-chloro-4-cyclopropoxyphenyl)-1-hydroxypropan-2-yl)-1H-naphtho[2,1-d][1,2]oxazine-4-carboxamide], the IC50 in experiment [1] was less than 10 nM; in the experiment on K562 cells, no more than 10 nM.
For `O=C(N[C@H](CN1CCCC1)[C@H](O)c1ccc(OC2CC2)c(Cl)c1)C1=NOCc2c1ccc1cccnc21` [Example 27, N-((1R,2R)-1-(3-chloro-4-cyclopropoxyphenyl)-1-hydroxy-3-(pyrrolidin-1-yl)propan-2-yl)-10H-[1,2]oxazino[4,5-h]quinoline-7-carboxamide] the same measures were less than 10 nM and 10 to 100 nM.
The matching figures for `O=C(N[C@H](CN1CCCC1)[C@H](O)c1ccc(OC2CC2)c(Cl)c1)C1=NOCc2c1ccc1cc(F)ccc21` [Example 28, N-((1R,2R)-1-(3-chloro-4-cyclopropoxyphenyl)-1-hydroxy-3-(pyrrolidin-1-yl)propan-2-yl)-8-fluoro-1H-naphtho[2,1-d][1,2]oxazine-4-carboxamide]: less than 10 nM and no more than 10 nM.
For `O=C(N[C@H](CN1CCCC1)[C@H](O)c1ccc(OC2CC2)cc1)C1=NOCc2c1ccc1cc(F)ccc21` [Example 29, N-((1R,2R)-1-(4-cyclopropoxyphenyl)-1-hydroxy-3-(pyrrolidin-1-yl)propan-2-yl)-8-fluoro-1H-naphtho[2,1-d][1,2]oxazine-4-carboxamide] the same measures were less than 10 nM and no more than 10 nM.
In the case of `O=C(N[C@H](CN1CCC1)[C@H](O)c1ccc(OC2CC2)c(Cl)c1)C1=NOCc2c1ccc1cc(F)ccc21` [Example 30, N-((1R,2R)-3-(azetidin-1-yl)-1-(3-chloro-4-cyclopropoxyphenyl)-1-hydroxypropan-2-yl)-8-fluoro-1H-naphtho[2,1-d][1,2]oxazine-4-carboxamide], the IC50 in experiment [1] is less than 10 nM; in the experiment on K562 cells it was 10 to 100 nM.
`O=C(N[C@H](CN1CCC1)[C@H](O)c1ccc(OC2CC2)cc1)C1=NOCc2c1ccc1cc(F)ccc21` [Example 31, N-((1R,2R)-3-(azetidin-1-yl)-1-(4-cyclopropoxyphenyl)-1-hydroxypropan-2-yl)-8-fluoro-1H-naphtho[2,1-d][1,2]oxazine-4-carboxamide]: the IC50 (in experiment [1]; in the experiment with K562 cells) was 10 to 100 nM throughout.
As to `O=C(N[C@H](CN1CCCC1)[C@H](O)c1ccc(OC2CC2)c(Cl)c1)C1=NOCc2c1ccc1sc(Cl)cc21` [Example 32, 8-chloro-N-((1R,2R)-1-(3-chloro-4-cyclopropoxyphenyl)-1-hydroxy-3-(pyrrolidin-1-yl)propan-2-yl)-1H-thieno[3′,2′:3,4]benzo[1,2-d][1,2]oxazine-4-carboxamide], the IC50 in experiment [1] is less than 10 nM; with K562 cells, no more than 10 nM.
For `Cn1ncc2c3c(ccc21)C(C(=O)N[C@H](CN1CCCC1)[C@H](O)c1ccc(OC2CC2)c(Cl)c1)=NOC3` [Example 33, N-((1R,2R)-1-(3-chloro-4-cyclopropoxyphenyl)-1-hydroxy-3-(pyrrolidin-1-yl)propan-2-yl)-7-methyl-1,7-dihydro-[1,2]oxazino[5,4-e]indazole-4-carboxamide], the IC50 was less than 10 nM in experiment [1] and 10 to 100 nM with K562 cells.
